# Laboratory results: patent publication US20260327243A1, “SPIRO-HETEROCYCLIC INHIBITORS OF KRAS G12C MUTANT PROTEINS AND USES THEREOF” (AMGEN INC., priority 2023, published 2026)
# Like-named read-outs stand apart in the source and are kept apart here.
# Legend:
# [1] = test system: advanced or metastatic cancer with the KRAS G12C mutation; details: cited from earlier work; for disease control rate: Hong et al. 2020
# [2] = test system: extracellular signal-regulated kinase (ERK); details: preclinical studies; Hong et al. 2020; cited from earlier work
# [3] = test system: KRAS p.G12C tumors; details: mice bearing KRAS p.G12C tumors; Hong et al. 2020; cited from earlier work
# [4] = target: KRAS^G12C (Homo sapiens, UniProt P01116, C118A/G12C); test: Coupled Nucleotide Exchange Assay; type: biochemical; details: GDP-bound KRAS (aa 1-169) G12C/C118A; 2 h compound pre-incubation; SOS-mediated exchange, 30 min; cRAF binding (AlphaLISA)
# How it was run: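 GDP-bound His-tagged KRAS aa 1-169 (G12C/C118A) pre-incubated 2 h with compound in 25 mM HEPES pH 7.4, 10 mM MgCl2, 0.01% Triton X-100 (±0.1% BSA), then SOS (aa 564-1049) plus GTP added for 30 min. GST-cRAF RBD binding read by AlphaLISA; DMSO-normalized, 4-parameter fit gives IC50.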
# [5] = test system: MIA PaCa-2 cells; test: Cell Viability Assay, MIA PaCa-2; type: cell-based; details: Homo sapiens, MIA PaCa-2, 72 h, human pancreatic carcinoma, CellTiter-Glo
# [6] = test system: A549 cells; test: Cell Viability Assay, A549; type: cell-based; details: A549; human lung carcinoma; 72 h; CellTiter-Glo
# Sequence of KRAS^G12C (P01116 1-169 isoform P01116-2 G12C/C118A): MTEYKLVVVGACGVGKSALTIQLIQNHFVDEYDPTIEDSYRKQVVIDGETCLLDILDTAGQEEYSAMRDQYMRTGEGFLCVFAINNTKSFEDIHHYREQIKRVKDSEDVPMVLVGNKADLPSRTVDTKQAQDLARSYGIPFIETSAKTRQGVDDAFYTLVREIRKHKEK
Compound,IC50 [4],IC50 [5],IC50 [6],"response by cancer type ([1]; NSCLC, colorectal, pancreatic, appendiceal, endometrial, esophageal, unknown primary, ampullary, gastric, small bowel, sinonasal, bile duct cancer, melanoma)","disease control rate ([1]; colorectal cancer, 42 subjects)","disease control rate ([1]; non-small cell lung cancer, 59 subjects)","disease control rate ([1]; other tumor types, 28 subjects)",inhibition of phosphorylation of ERK [2],tumor regression [3]
"C=CC(=O)N1CCN(c2nc(=O)n(-c3c(C)ccnc3C(C)C)c3nc(-c4c(O)cccc4F)c(F)cc23)[C@@H](C)C1 [Sotorasib, sotorasib]",–,–,–,either stable disease (SD) or partial response (PR),73.8%,88.1%,75.0%,inhibited nearly all detectable phosphorylation of extracellular signal-regulated kinase (ERK),durable complete tumor regression
"C=CC(=O)N1CCN(C2CN(c3cc(N4CCC5(CC4)OCc4cnn(C)c45)nc(C(F)(F)F)c3C#N)C2)CC1 [Compound 3-049, 4-(3-(4-acryloylpiperazin-1-yl)azetidin-1-yl)-6-(1-methyl-1,4-dihydrospiro[furo[3,4-c]pyrazole-6,4′-piperidin]-1′-yl)-2-(trifluoromethyl)nicotinonitrile]",664 nM,979 nM,> 5000 nM,–,–,–,–,–,–
"C=CC(=O)N1CCN([C@@H]2CN(c3cc(N4CCC5(CC4)OCC=C5C)nc(C(F)F)c3C)[C@@H]2C)CC1 [Compound 3-057, 1-(4-((2R,3R)-1-(2-(Difluoromethyl)-3-methyl-6-(4-methyl-1-oxa-8-azaspiro[4.5]dec-3-en-8-yl)pyridin-4-yl)-2-methylazetidin-3-yl)piperazin-1-yl) prop-2-en-1-one]",288 nM,272 nM,> 5000 nM,–,–,–,–,–,–
"C=CC(=O)N1CCN([C@@H]2CN(c3cc(N4CC[C@]5(C[C@H]4C)OCCc4ncsc45)nc(C(F)(F)F)n3)[C@@H]2C)CC1 (single isomer, unassigned) [Compound 3-091-1]",54 nM,331 nM,> 5000 nM,–,–,–,–,–,–
"C=CC(=O)N1CCN(C2CN(c3cc(N4CCC5(CCCO5)CC4)nc(C(F)(F)F)c3C#N)C2)CC1 [Compound 3-039, 4-(3-(4-acryloylpiperazin-1-yl)azetidin-1-yl)-6-(1-oxa-8-azaspiro[4.5]decan-8-yl)-2-(trifluoromethyl)nicotinonitrile]",1650 nM,2410 nM,> 5000 nM,–,–,–,–,–,–
"C=CC(=O)N1CCN([C@@H]2CN(c3cc(N4CC[C@]5(C[C@H]4C)OCCn4ncc(C)c45)nc(C(F)F)n3)[C@@H]2C)CC1 [Compound 3-078, 1-(4-((2R,3R)-1-(2-(difluoromethyl)-6-((2R,4R)-2,3′-dimethyl-6′,7′-dihydro-1H-spiro[piperidine-4,4′-pyrazolo[5.1-c][1,4]oxazin]-1-yl)-4-pyrimidinyl)-2-methyl-3-azetidinyl)-1-piperazinyl)-2-propen-1-one]",89 nM,387 nM,> 5000 nM,–,–,–,–,–,–
"C=CC(=O)N1CCN([C@@H]2CN(c3cc(N4CC[C@]5(C[C@H]4C)OC[C@H](COC)n4ncc(C)c45)nc(C(F)(F)F)n3)[C@@H]2C)CC1 (single isomer, unassigned) [Compound 3-089-1]",42 nM,102 nM,> 5000 nM,–,–,–,–,–,–

# Further compounds by falling IC50 [4], results first:
IC50 [4],IC50 [5],IC50 [6],Compound,"response by cancer type ([1]; NSCLC, colorectal, pancreatic, appendiceal, endometrial, esophageal, unknown primary, ampullary, gastric, small bowel, sinonasal, bile duct cancer, melanoma)","disease control rate ([1]; colorectal cancer, 42 subjects)","disease control rate ([1]; non-small cell lung cancer, 59 subjects)","disease control rate ([1]; other tumor types, 28 subjects)",inhibition of phosphorylation of ERK [2],tumor regression [3]
704 nM,2800 nM,> 5000 nM,"C=CC(=O)N1CCN(C2CN(c3cc(N4CCC5(CCC(=O)N5C)CC4)nc(C(F)(F)F)c3C#N)C2)CC1 [Compound 3-075, 4-(3-(4-Acryloylpiperazin-1-yl)azetidin-1-yl)-6-(1-methyl-2-oxo-1,8-diazaspiro[4.5]decan-8-yl)-2-(trifluoromethyl)nicotinonitrile]",–,–,–,–,–,–
527 nM,1310 nM,> 5000 nM,"C=CC(=O)N1CCN(C2CN(c3cc(N4CCC5(CC4)O[C@H](C)C=C5Cl)nc(C(F)(F)F)c3C#N)C2)CC1 (single isomer, unassigned) [Compound 3-067-1]",–,–,–,–,–,–
423 nM,1160 nM,> 5000 nM,"C=CC(=O)N1CCN([C@@H]2CN(c3cc(N4CCC5(CC4)OCCC5=C)nc(C(F)(F)F)n3)[C@@H]2C)CC1 [Compound 3-074, 1-(4-((2R,3R)-2-Methyl-1-(6-(4-methylene-1-oxa-8-azaspiro[4.5]decan8-yl)-2-(trifluoromethyl)pyrimidin-4-yl)azetidin-3-yl)piperazin-1-yl) prop-2-en-1-one]",–,–,–,–,–,–
376 nM,665 nM,> 5000 nM,"C=CC(=O)N1CCN([C@@H]2CN(c3cc(N4CCC5(CC4)OCc4ncsc45)nc(C(F)(F)F)n3)[C@@H]2C)CC1 [Compound 3-001, 1-(4-((2R,3R)-1-(6-(4H-Spiro[furo[3,4-d]thiazole-6,4′-piperidin]-1′-yl)-2-(trifluoromethyl)pyrimidin-4-yl)-2-methylazetidin-3-yl)piperazin-1-yl) prop-2-en-1-one]",–,–,–,–,–,–
215 nM,582 nM,> 5000 nM,"C=CC(=O)N1CCN(C2CN(c3cc(N4CCC5(C=CCO5)CC4)nc(C(F)(F)F)c3C#N)C2)CC1 [Compound 3-059, 4-(3-(4-Acryloylpiperazin-1-yl)azetidin-1-yl)-6-(1-oxa-8-azaspiro[4.5]dec-3-en-8-yl)-2-(trifluoromethyl)nicotinonitrile]",–,–,–,–,–,–
191 nM,755 nM,> 5000 nM,"C=CC(=O)N1CCN(C2CN(c3cc(N4CCC5(CC4)OC(C)C=C5C)nc(C(F)(F)F)c3C#N)C2)CC1 (stereo not drawn) [Compound 3-053, 4-(3-(4-Acryloylpiperazin-1-yl)azetidin-1-yl)-6-(2,4-dimethyl-1-oxa-8-azaspiro[4.5]dec-3-en-8-yl)-2-(trifluoromethyl)nicotinonitrile]",–,–,–,–,–,–
36 nM,171 nM,> 5000 nM,"C=CC(=O)N1CCN([C@@H]2CN(c3cc(N4CCC5(CC4)OC4(COC4)c4nccc(C)c45)nc(C(F)F)n3)[C@@H]2C)CC1 [Compound 3-103, 1-(4-((2R,3R)-1-(2-(difluoromethyl)-6-(4′-methyl-1″H-dispiro[oxetane-3,7′-furo[3,4-b]pyridine-5′,4″- piperidin]-1″-yl)-4-pyrimidinyl)-2-methyl-3-azetidinyl)-1-piperazinyl)-2-propen-1-one]",–,–,–,–,–,–
